Reference: patent US20050288307A1, “Anti-viral compounds” (priority 2002, published 2005)
Read-outs that look alike come from different tables or passages of the source.

What was measured:
CDK2/Cyclin E = target: T1, CDK2/Cyclin E (Homo sapiens, UniProt P24941); test: CDK2/cyclin E kinase assay (GST-Rb phosphorylation); format: biochemical;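 further: enzyme source: His-tagged CDK2/cyclin E complex co-expressed recombinantly in Sf9 insect cells using baculovirus constructs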
T1 construct: His; made in house; host or cells: Sf9 insect cells (baculovirus)
Description: (§1) His-tagged CDK2/Cyclin E and CDK1/Cyclin B may be co-expressed and PKCα singularly expressed in Sf 9 insect cells infected with the appropriate baculovirus constructs. The cells are harvested two days after infection by low speed centrifugation and the proteins purified from the insect cell pellets by Metal-chelate chromatography. Briefly, the insect cell pellet is lysed in Buffer A (10 mM Tris-HCl, pH 8.0, 150 mM NaCl, 0.02% NP40 and 5 mM β-marcaptoethanol, 1 mM NaF. 1 mM Na3VO4 and Protease Inhibitors Coctail (Sigma) containing AEBSF, pepstatin A, E 64, bestatin, leupeptin) by sonication. The soluble fraction is cleared by centrifugation and loaded onto Ni-NTA-Agarose (Quiagen). Non bound proteins were washed off with 300 mM NaCl, 5-15 mM Imidazole in Buffer A and the bound proteins eluted with 250 mM Imidazole in Buffer A. The purified proteins are extensively dialyzed against Storage buffer (20 mM HEPES pH 7.4, 50 mM NaCl, 2 mM DTT, 1 mM EDTA, 1 mM EGTA, 0.02% NP40, 10% v/v Glycerol) aliquoted and stored at −70° C.

CDK1/Cyclin B = CDK1/Cyclin B (Homo sapiens, UniProt P06493); test: CDK1/cyclin B kinase assay (GST-Rb phosphorylation);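 further: Enzyme: His-tagged CDK1/Cyclin B co-expressed in baculovirus-infected Sf9 insect cells, purified via metal-chelate chromatography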
Description: as §1

CDK9/cyclin T1 = CDK9/cyclin T1 (Homo sapiens, UniProt P50750); test: CDK9 assay (CTD peptide substrate); format: biochemical
Description: CTD peptide substrate (biotinyl-Ahx-(Tyr-Ser-Pro-Thr-Ser-Pro-Ser)4-NH2; 1-2 mg/mL) and recombinant human CDK7/cyclin H, CDK9/cyclin T1, or CDK9/cyclin K (0.5-2 μg) were incubated for 45 min at 30° C. in the presence of varying amounts of test compound in 20 mM MOPS pH 7.2, 25 mM β-glycerophosphate, 5 mM EGTA, 1 mM DTT, 1 mM sodium vanadate, 15 mM MgCl2, and 100 μM ATP (containing a trace amount of ^32PγATP) in a total volume of 25 μL in a 96-well microtiter plate. The reaction was stopped by placing the plate on ice for 2 min. Avidin (50 μg) was added to each well, and the plate was incubated at room temp for 30 min. The samples were transferred to a 96-well P81 filter plate, and washed (4×200 μL per well) with 75 mM phosphoric acid. Microscint 40 scintillation liquid (50 μL) was added to each well, and the amount of ^32P incorporation for each sample was measured using a Packard Topcount microplate scintillation counter.

CDK4/Cyclin D1 = CDK4/Cyclin D1 (Homo sapiens, UniProt P11802); test: CDK4/cyclin D1 kinase assay (GST-Rb phosphorylation); format: biochemical; settings: Table 3; read-out: Average IC50 CDK4 cyclin D1
[1] = Table 3, read-out: Average IC50 CDK2 cyclin E1
[2] = Table 3, read-out: Average IC50 CDK9 cyclin T1
[3] = Table 4, read-out: Kinase Inhibition IC50 CDK9-cyclin T1

Chain of CDK1/Cyclin B (P06493 whole entry, species assumed): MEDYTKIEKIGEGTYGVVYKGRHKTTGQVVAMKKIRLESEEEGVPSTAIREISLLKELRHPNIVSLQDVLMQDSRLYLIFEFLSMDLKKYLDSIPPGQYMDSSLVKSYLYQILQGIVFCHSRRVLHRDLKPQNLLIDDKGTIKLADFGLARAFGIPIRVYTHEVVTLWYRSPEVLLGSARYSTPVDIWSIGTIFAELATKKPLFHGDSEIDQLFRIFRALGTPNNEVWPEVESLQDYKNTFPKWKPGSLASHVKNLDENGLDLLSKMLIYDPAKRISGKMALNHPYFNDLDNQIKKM
Chain of CDK1/Cyclin B (P14635 whole entry partner, species assumed): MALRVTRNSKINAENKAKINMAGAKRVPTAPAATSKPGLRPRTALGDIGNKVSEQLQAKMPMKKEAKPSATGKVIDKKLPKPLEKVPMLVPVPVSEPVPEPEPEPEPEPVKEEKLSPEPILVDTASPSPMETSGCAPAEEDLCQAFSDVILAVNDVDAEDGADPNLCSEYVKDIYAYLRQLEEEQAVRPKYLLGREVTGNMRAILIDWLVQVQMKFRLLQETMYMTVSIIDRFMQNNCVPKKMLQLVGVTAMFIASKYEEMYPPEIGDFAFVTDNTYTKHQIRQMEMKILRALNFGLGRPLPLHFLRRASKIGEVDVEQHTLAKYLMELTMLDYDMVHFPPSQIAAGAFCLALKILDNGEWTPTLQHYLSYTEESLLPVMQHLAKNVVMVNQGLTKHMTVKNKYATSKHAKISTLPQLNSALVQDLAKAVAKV
Chain of CDK9/cyclin T1 (P50750 whole entry): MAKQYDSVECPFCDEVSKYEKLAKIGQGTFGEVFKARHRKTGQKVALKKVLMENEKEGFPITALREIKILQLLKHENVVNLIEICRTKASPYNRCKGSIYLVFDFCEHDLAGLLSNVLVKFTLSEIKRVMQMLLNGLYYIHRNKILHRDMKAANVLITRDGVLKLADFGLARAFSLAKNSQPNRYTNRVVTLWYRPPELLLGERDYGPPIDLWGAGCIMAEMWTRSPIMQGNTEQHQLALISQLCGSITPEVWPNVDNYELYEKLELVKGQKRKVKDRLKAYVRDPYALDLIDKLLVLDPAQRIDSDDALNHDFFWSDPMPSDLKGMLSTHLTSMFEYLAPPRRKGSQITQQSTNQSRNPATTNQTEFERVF
Chain of CDK9/cyclin T1 (O60563 whole entry partner): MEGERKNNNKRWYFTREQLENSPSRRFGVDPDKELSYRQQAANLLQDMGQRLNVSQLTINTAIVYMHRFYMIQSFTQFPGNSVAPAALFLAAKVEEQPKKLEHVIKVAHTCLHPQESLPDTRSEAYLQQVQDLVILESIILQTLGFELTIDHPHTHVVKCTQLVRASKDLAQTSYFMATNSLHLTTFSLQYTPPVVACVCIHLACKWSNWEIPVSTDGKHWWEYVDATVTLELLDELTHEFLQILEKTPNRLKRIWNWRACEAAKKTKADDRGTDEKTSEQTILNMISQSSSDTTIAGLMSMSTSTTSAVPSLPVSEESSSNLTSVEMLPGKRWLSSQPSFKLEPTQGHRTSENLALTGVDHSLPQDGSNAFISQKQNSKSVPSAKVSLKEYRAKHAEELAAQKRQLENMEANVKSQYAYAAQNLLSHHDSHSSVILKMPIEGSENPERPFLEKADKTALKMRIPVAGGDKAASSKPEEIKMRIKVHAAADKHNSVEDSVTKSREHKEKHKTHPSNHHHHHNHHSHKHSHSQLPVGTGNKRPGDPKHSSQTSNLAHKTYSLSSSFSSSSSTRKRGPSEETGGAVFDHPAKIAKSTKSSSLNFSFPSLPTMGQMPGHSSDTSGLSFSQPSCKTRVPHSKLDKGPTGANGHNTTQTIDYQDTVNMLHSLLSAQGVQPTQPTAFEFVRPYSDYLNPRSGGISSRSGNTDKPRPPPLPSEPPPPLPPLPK
Chain of CDK4/Cyclin D1 (P11802 whole entry, species assumed): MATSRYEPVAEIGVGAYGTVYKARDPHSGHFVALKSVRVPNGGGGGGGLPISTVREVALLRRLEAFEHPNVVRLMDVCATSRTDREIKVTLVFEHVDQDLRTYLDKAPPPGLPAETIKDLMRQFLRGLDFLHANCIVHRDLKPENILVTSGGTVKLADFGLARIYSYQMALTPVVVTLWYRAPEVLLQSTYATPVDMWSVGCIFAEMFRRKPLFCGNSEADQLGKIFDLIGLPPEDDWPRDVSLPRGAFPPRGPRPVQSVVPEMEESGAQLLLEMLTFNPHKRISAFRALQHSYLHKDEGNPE
Chain of CDK4/Cyclin D1 (P24385 whole entry partner, species assumed): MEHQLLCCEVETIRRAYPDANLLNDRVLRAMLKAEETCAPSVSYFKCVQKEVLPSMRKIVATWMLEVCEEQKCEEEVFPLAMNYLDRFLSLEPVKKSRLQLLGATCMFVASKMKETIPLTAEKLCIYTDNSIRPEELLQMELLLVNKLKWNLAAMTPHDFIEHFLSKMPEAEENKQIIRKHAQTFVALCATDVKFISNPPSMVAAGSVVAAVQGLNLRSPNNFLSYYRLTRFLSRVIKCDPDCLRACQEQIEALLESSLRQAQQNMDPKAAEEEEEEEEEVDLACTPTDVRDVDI

Row | Compound | IC50 (CDK2/Cyclin E; [1]) | IC50 (CDK9/cyclin T1; [2]) | further results
1 | Cc1nc(C)c(-c2ccnc(Nc3ccc(Cl)cc3)n2)s1 [Compound 2, (4-Chloro-phenyl)-[4-(2,4-dimethyl-thiazol-5-yl)-pyrimidin-2-yl]-amine] |  |  | IC50 (CDK2/Cyclin E): 5100 nM; IC50 (CDK1/Cyclin B): 14000 nM
2 | Cc1nc(C)c(-c2ccnc(Nc3ccccc3F)n2)s1 [Compound 7, [4-(2,4-Dimethyl-thiazol-5-yl)-pyrimidin-2-yl]-(2-fluoro-phenyl)-amine] |  |  | IC50 (CDK1/Cyclin B): 12000 nM
3 | Cc1nc(C)c(-c2ccnc(Nc3cc(F)cc(F)c3)n2)s1 [Compound 10, (3,5-Difluoro-phenyl)-[4-(2,4-dimethyl-thiazol-5-yl)-pyrimidin-2-yl]-amine] | 5900 nM |  | IC50 (CDK1/Cyclin B): 5500 nM
4 | Cc1nc(C)c(-c2ccnc(Nc3cc(Cl)cc(Cl)c3)n2)s1 [Compound 11, (3,5-Dichloro-phenyl)-[4-(2,4-dimethyl-thiazol-5-yl)-pyrimidin-2-yl]-amine] | 10000 nM |  | IC50 (CDK1/Cyclin B): 20000 nM
5 | Cc1nc(C)c(-c2ccnc(Nc3ccc(Cl)cc3Cl)n2)s1 [Compound 12, (2,4-Dichloro-phenyl)-[4-(2,4-dimethyl-thiazol-5-yl)-pyrimidin-2-yl]-amine] | 10000 nM |  | 
6 | Cc1nc(C)c(-c2ccnc(Nc3cccc(I)c3)n2)s1 [Compound 20, [4-(2,4-Dimethyl-thiazol-5-yl)-pyrimidin-2-yl]-(3-iodo-phenyl)-amine] | 6800 nM |  | 
7 | Cc1nc(C)c(-c2ccnc(Nc3cccc(F)c3)n2)s1 [Compound 22, [4-(2,4-Dimethyl-thiazol-5-yl)-pyrimidin-2-yl]-(3-fluoro-phenyl)-amine] | 220 nM |  | 
8 | Cc1nc(C)c(-c2ccnc(Nc3ccc(F)c(F)c3)n2)s1 [Compound 23, (3,4-Difluoro-phenyl)-[4-(2,4-dimethyl-thiazol-5-yl)-pyrimidin-2-yl]-amine] |  | 3110 nM | 
9 | COc1ccccc1Nc1nccc(-c2sc(C)nc2C)n1 [Compound 24, [4-(2,4-Dimethyl-thiazol-5-yl)-pyrimidin-2-yl]-(2-methoxy-phenyl)-amine] | 6300 nM |  | 
10 | COc1cccc(Nc2nccc(-c3sc(C)nc3C)n2)c1 [Compound 25, [4-(2,4-Dimethyl-thiazol-5-yl)-pyrimidin-2-yl]-(3-methoxy-phenyl)-amine] | 440 nM |  | 
11 | Cc1nc(C)c(-c2ccnc(Nc3ccc(C(=O)O)cc3)n2)s1 [Compound 40, 4-[4-(2,4-Dimethyl-thiazol-5-yl)-pyrimidin-2-ylamino]-benzoic acid] | 740 nM |  | 
12 | Cc1nc(C)c(-c2cc(Br)nc(Nc3cccc([N+](=O)[O-])c3)n2)s1 [Compound 41, [4-Bromo-6-(2,4-dimethyl-thiazol-5-yl)-pyrimidin-2-yl]-(3-nitro-phenyl)-amine] | 580 nM |  | 
13 | CNc1nc(C)c(-c2ccnc(Nc3ccc(O)c([N+](=O)[O-])c3)n2)s1 [Compound 58, 4-[4-(4-Methyl-2-methylamino-thiazol-5-yl)-pyrimidin-2-ylamino]-2-nitro-phenol] | 1500 nM | 61 nM | 
14 | CCNc1nc(C)c(-c2ccnc(Nc3ccc(F)cc3)n2)s1 [Compound 60, [4-(2-Ethylamino-4-methyl-thiazol-5-yl)-pyrimidin-2-yl]-(4-fluoro-phenyl)-amine] | 510 nM |  | 
15 | CNc1nc(C)c(-c2ccnc(Nc3cccc([N+](=O)[O-])c3)n2)s1 [Compound 61, [4-(4-Methyl-2-methylamino-thiazol-5-yl)-pyrimidin-2-yl]-(3-nitro-phenyl)-amine] | 2100 nM | 190 nM | 
16 | C=CCNc1nc(C)c(-c2ccnc(Nc3ccc(F)cc3)n2)s1 [Compound 67, [4-(2-Allylamino-4-methyl-thiazol-5-yl)-pyrimidin-2-yl]-(4-fluoro-phenyl)-amine] | 1300 nM |  | 
17 | CNc1nc(C)c(-c2ccnc(Nc3cccc(Br)c3)n2)s1 [Compound 68, (3-Bromo-phenyl)-[4-(4-methyl-2-methylamino-thiazol-5-yl)-pyrimidin-2-yl]-amine] | 27000 nM | 10 nM | 
18 | C=CCNc1nc(C)c(-c2ccnc(Nc3cccc([N+](=O)[O-])c3)n2)s1 [Compound 69, [4-(2-Allylamino-4-methyl-thiazol-5-yl)-pyrimidin-2-yl]-(3-nitro-phenyl)-amine] |  | 68 nM | 
19 | Cc1c(-c2ccnc(Nc3ccc(O)cc3)n2)sc(=O)n1C [Compound 152, 5-[2-(4-Hydroxy-phenylamino)-pyrimidin-4-yl]-3,4-dimethyl-3H-thiazol-2-one] |  |  | IC50 (CDK9/cyclin T1; [3]): 2.3 nM
20 | Cc1c(-c2ccnc(Nc3ccc(F)cc3)n2)sc(=O)n1C [Compound 155, 5-[2-(4-Fluoro-phenylamino)-pyrimidin-4-yl]-3,4-dimethyl-3H-thiazol-2-one] |  |  | IC50 (CDK9/cyclin T1; [3]): 2.7 nM
21 | Cc1cc(Nc2nccc(-c3sc(=O)n(C)c3C)n2)ccc1F [Compound 162, 5-[2-(4-Fluoro-3-methyl-phenylamino)-pyrimidin-4-yl]-3,4-dimethyl-3H-thiazol-2-one] |  |  | IC50 (CDK9/cyclin T1; [3]): 79 nM

The next lines start with results.

Row | IC50 (CDK2/Cyclin E; [1]) | IC50 (CDK9/cyclin T1; [2]) | Compound | further results
22 | 310 nM | 480 nM | CNc1nc(C)c(-c2ccnc(Nc3cccc(OC)c3)n2)s1 [Compound 73, (3-Methoxy-phenyl)-[4-(4-methyl-2-methylamino-thiazol-5-yl)-pyrimidin-2-yl]-amine] | 
23 | 1900 nM |  | CNc1nc(C)c(-c2ccnc(Nc3ccc(C(F)(F)F)cc3)n2)s1 [Compound 74, [4-(4-Methyl-2-methylamino-thiazol-5-yl)-pyrimidin-2-yl]-(4-trifluoromethyl-phenyl)-amine] | 
24 | 1200 nM |  | COc1ccc(Nc2nccc(-c3sc(C)nc3C)n2)c(O)c1 [Compound 79, 2-[4-(2,4-Dimethyl-thiazol-5-yl)-pyrimidin-2-ylamino]-5-methoxy-phenol] | 
25 | 2000 nM |  | COC(=O)c1cc(Nc2nccc(-c3sc(C)nc3C)n2)ccc1Cl [Compound 83, 2-Chloro-5-[4-(2,4-dimethyl-thiazol-5-yl)-pyrimidin-2-ylamino]-benzoic acid methyl ester] | 
26 | 1300 nM | 63 nM | CNc1nc(C)c(-c2ccnc(Nc3cccc(F)c3)n2)s1 [Compound 87, (3-Fluoro-phenyl)-[4-(4-methyl-2-methylamino-thiazol-5-yl)-pyrimidin-2-yl]-amine] | 
27 | 1 nM |  | CNc1nc(C)c(-c2ccnc(Nc3ccc(OC)cc3)n2)s1 [Compound 93, (4-Methoxy-phenyl)-[4-(4-methyl-2-methylamino-thiazol-5-yl)-pyrimidin-2-yl]-amine] | 
28 | 120 nM |  | O=[N+]([O-])c1ccc(Nc2ncc(-c3ccnc(Nc4ccc(O)cc4)n3)s2)cc1 [Compound 95, 4-{4-[2-(4-Nitro-phenylamino)-thiazol-5-yl]-pyrimidin-2-ylamino}-phenol] | 
29 | 190 nM |  | Cc1nc(C)c(-c2ccnc(Nc3cccc(CO)c3)n2)s1 [Compound 100, {3-[4-(2,4-Dimethyl-thiazol-5-yl)-pyrimidin-2-ylamino]-phenyl}-methanol] | 
30 | 690 nM |  | Cc1nc(C)c(-c2ccnc(Nc3ccc(Cc4ccncc4)cc3)n2)s1 [Compound 101, [4-(2,4-Dimethyl-thiazol-5-yl)-pyrimidin-2-yl]-(4-pyridin-4-ylmethyl-phenyl)-amine] | IC50 (CDK4/Cyclin D1): 1100 nM
31 |  | 240 nM | Cc1nc(N)sc1-c1ccnc(Nc2ccc(N(C)C)cc2)n1 [Compound 106, N-[4-(2-Amino-4-methyl-thiazol-5-yl)-pyrimidin-2-yl]-N′,N′-dimethyl-benzene-1,4-diamine] | 
32 | 670 nM |  | COc1ccc(Nc2nccc(-c3sc(N)nc3C)n2)cc1 [Compound 111, [4-(2-Amino-4-methyl-thiazol-5-yl)-pyrimidin-2-yl]-(4-methoxy-phenyl)-amine] | 
33 |  | 280 nM | Cc1nc(N)sc1-c1ccnc(Nc2cccc(Br)c2)n1 [Compound 119, [4-(2-Amino-4-methyl-thiazol-5-yl)-pyrimidin-2-yl]-(3-bromo-phenyl)-amine] | 
34 |  | 170 nM | CNc1nc(C)c(-c2ccnc(Nc3ccc(N(C)C)cc3)n2)s1 [Compound 131, N,N-Dimethyl-N′-[4-(4-methyl-2-methylamino-thiazol-5-yl)-pyrimidin-2-yl]-benzene-1,4-diamine] | 
35 |  | 110 nM | CNc1nc(C)c(-c2ccnc(Nc3ccc(I)c([N+](=O)[O-])c3)n2)s1 [Compound 132, (4-Iodo-3-nitro-phenyl)-[4-(4-methyl-2-methylamino-thiazol-5-yl)-pyrimidin-2-yl]-amine] | 
36 | 2000 nM | 5900 nM | CCNc1nc(C)c(-c2ccnc(Nc3ccc(Cl)cc3)n2)s1 [Compound 134, (4-Chloro-phenyl)-[4-(2-ethylamino-4-methyl-thiazol-5-yl)-pyrimidin-2-yl]-amine] | IC50 (CDK1/Cyclin B): 22000 nM
37 |  | 4 nM | Cc1nc(NCCO)sc1-c1ccnc(Nc2cccc([N+](=O)[O-])c2)n1 [Compound 144, 2-{4-Methyl-5-[2-(3-nitro-phenylamino)-pyrimidin-4-yl]-thiazol-2-ylamino}-ethanol] | 
38 |  | 8 nM | Cc1nc(NCCO)sc1-c1ccnc(Nc2ccc(F)cc2)n1 [Compound 145, 2-{5-[2-(4-Fluoro-phenylamino)-pyrimidin-4-yl]-4-methyl-thiazol-2-ylamino}-ethanol] | 
